Reference: paper PMC5121622, “Cytotoxic and genotoxic potential of food-borne nitriles in a liver in vitro model” (Scientific Reports, 2016)
“Also recorded” adds a separate entry of the source. Read-outs that look alike come from different tables or passages of the source.

Experiments:
[1] = system: human liver cancer (HepG2) cells; assay: WST-1 cytotoxicity assay in HepG2 cells; type: cell-based; conditions: for IC50: HepG2, 72 h treatment, WST-1 assay; for change in cell viability: HepG2, 72 h, 0.3 to 30 mM
Experimental: (§1) HepG2 cells were purchased from the German Collection of Microorganisms and Cell Cultures (DSMZ, Braunschweig, Germany). HepG2 cells which constitutively express human CYP2E1 (E47 cells, HepG2-CYP2E1) and control HepG2 cells transfected with empty vector (C34 cells, HepG2- vector), originally established by Wu and Cederbaum[27], were kindly provided by C. Hellerbrand (University Medical Center Regensburg, Germany). The cells were cultured in low glucose Dulbecco’s modified eagle medium supplemented with 15% fetal calf serum and 1% Pen/Strep in an atmosphere with 5% CO2 at 37 °C and 95% air humidity.
(§2) Cytotoxicity was determined with the WST-1 assay (Roche Diagnostics Deutschland GmbH, Mannheim, Germany). The assay is based on the ability of viable cells to cleave the tetrazolium salt WST-1 to formazan by their mitochondrial succinate-tetrazolium-reductase system. Cells were cultured at an initial density of 5000 cells/well in 96-well plates for 48 h. Then, cells were treated with the nitriles (0.3 to 30 mM, solved in distilled water) for 72 h. As positive control, 0.01% Triton X-100 was used. Following compound exposure and incubation, the WST 1 assay was performed according to the manufacturer’s instructions.
The median growth inhibitory concentration (IC50) for compound cytotoxicity was calculated using Graphpad Prism 5.0 software (La Jolla, CA). After logarithmic transformation, IC50 values were calculated with equation 1: […]

Hepa1c1c7 cells = conditions: Hepa1c1c7, 5 mM, 72 h; cited from earlier work
[2] = system: primary murine hepatocytes; assay: WST-1 cell viability in primary murine hepatocytes; type: cell-based, mouse; conditions: 72 h
Experimental: Murine hepatocytes were obtained from 8–16 week-old, male C57BL6 mice (Charles River Laboratory, Sulzfeld, Germany) as described elsewhere. The institutional and national guidelines for the care and use of animals were followed, and all experimental procedures were approved by the institutional Animal Care and Use Committee at the University of Freiburg according to § 8.I of the Animal Welfare Act. 2–2.2 × 10^5 cells were plated in 24 well plates. The cells were left undisturbed for 4 h in a 5% CO2 atmosphere at 37 °C and then the medium was changed to serum free Williams’ Medium E supplemented with 100 nM dexamethasone. Within 24 h the cells were exposed to the test compounds and controls for 72 h.
as §2

quinone reductase = conditions: cited from earlier work
HepG2 cells [3] = system: HepG2 cells; parameters: method as in Lamy et al. (2009); conditions: HepG2, Comet assay and micronucleus test; ref Lamy et al. (2009); cited from earlier work
HepG2 cells [4] = assay: Comet assay (DNA strand breaks) in HepG2 cells; type: cell-based, human; conditions: HepG2, 24 h; for concentration with significant increase in DNA strand breaks: Olive Tail Moment and percent tail DNA
Experimental: (§3) The single cell gel electrophoresis assay also known as Comet assay was carried out as described earlier with slight modifications. The percent tail DNA and the Olive Tail Moment (OTM) were calculated as indicators of DNA damage. For each sample, 102 systematically screened cells were evaluated. Briefly, HepG2 cells were seeded onto well plates. After 48 h of growth, the cells were exposed to the nitriles or ITC for 24 h. As positive control 50 μM B(α)P and as solvent control distilled water or 0.1% DMSO was used. To analyze the repair capacity of HepG2 cells, the test substances were removed after 24 h and incubated for another 24 h before the assay was terminated.

HepG2-CYP2E1 cells [5] = assay: Comet assay in CYP2E1 transfected HepG2 and vector cells; type: cell-based, human; conditions: 24 h
Experimental: as §1, §3

[6] = system: activated human T lymphocytes; parameters: method as in PMID 27161402; conditions: cited from earlier work
UM-2BB cells = system: UM-2BB cells; parameters: method as in Lui et al. (2003); conditions: MTT-assay, ref Lui et al. (2003); cited from earlier work
HepG2-CYP2E1 cells [7] = assay: WST-1 cytotoxicity assay in CYP2E1-overexpressing HepG2 cells versus vector control cells; type: cell-based, human; conditions: 10 mM, 72 h
Experimental: as §1, §2

[8] = Homo sapiens, read-out: IC50 (median growth inhibitory concentration)

Molecule `CSCCCCCCC#N` [6-MTH-CN, 7-(methylthio)heptylnitrile] has an IC50 [1, 8] of 8.15 mM.
For `C=CC(O)CC#N` (centres unmarked) [crambene, 3-hydroxy-4-pentenenitrile], the “cell proliferation diminished by” value (Hepa1c1c7 cells) is given as 76% and the “cell viability reduced by” value (Hepa1c1c7 cells) is given as 12%.
Molecule `CSCCCC#N` [3-MTP-CN, 4-(methylthio)butylnitrile] has an IC50 [1, 8] of 19.5 mM.
`N#CCCc1ccccc1` [2-phenylethyl-CN, 3-phenylpropanenitrile] showed an IC50 [1, 8] of 18.2 mM.
For `C=CCC#N` [allyl-CN, 3-butenenitrile], the “change in cell viability” value [1] was “did not result in significant changes in cell viability” and the viability of hepatocytes [2] was “significantly decreased the viability of hepatocytes in a concentration-dependent manner”.
For `C[S+]([O-])CCCCC#N` (centres unmarked) [sulforaphane nitrile, 5-(methylsulfinyl)pentylnitrile], the “concentration reaching a similar induction of quinone reductase as sulforaphane” value (quinone reductase) is listed as 2 mM.
For `CSCCCCCN=C=S` [5-MTP-ITC, 5-(methylthio)pentyl ITC], the “concentration inducing DNA damage and mutagenicity” value (HepG2 cells [3]) is listed as “exceeding 1 μM”.
For `N#CCc1ccccc1` [benzyl-CN, phenylacetonitrile], the IC50 [1, 8] was 19.9 mM, the viability of hepatocytes [2] was “significantly decreased the viability of hepatocytes in a concentration-dependent manner” and the “DNA strand breaks, concentration dependence” value (HepG2 cells [4]) was “concentration-dependent increase in DNA strand breaks”. For the same molecule, the “DNA damage compared with benzyl ITC” value (HepG2 cells [4]; 3 μM) was “comparable with the effect of benzyl ITC at the same concentration; also recorded: comparable with the effect of benzyl-ITC in the same concentration”, the “concentration with significant increase in DNA strand breaks” value (HepG2 cells [4]) was ≥ 3 µM and the “concentration with significant increment of DNA strand breaks by CYP2E1-overexpression as compared to vector control cells” value (HepG2-CYP2E1 cells [5]) was ≥ 3 µM. For the same molecule, the “influence on PGE2 release” value ([6]; 1 mM) was “did not influence PGE2 release”.
In the case of `CSCCCCCC#N` [5-MTP-CN, 6-(methylthio)hexylnitrile], the IC50 [1, 8] is reported as 12.2 mM.
With `C=CCCCC#N` [4-pent-CN, 5-hexenenitrile] the “change in cell viability” value [1] was “did not result in significant changes in cell viability”.
With `C=CCCC#N` [3-but-CN, 4-pentenenitrile] the “change in cell viability” value [1] was “did not result in significant changes in cell viability” and the viability of hepatocytes [2] was “significantly decreased the viability of hepatocytes in a concentration-dependent manner”.
In the case of `CSCCCN=C=S` [3-MTP-ITC, 3-(methylthio)propyl ITC], the “concentration inducing DNA damage and mutagenicity” value (HepG2 cells [3]) is listed as “exceeding 1 μM”.
For `S=C=NCc1ccccc1` [benzyl-ITC, benzyl ITC, reference compound], the IC50 ([1]; read-out: IC50) is given as 0.0158 mM, the “cytotoxic potency relative to the nitriles” value ([1]; HepG2, ITC versus corresponding nitrile) is given as 1000 fold and the IC50 (UM-2BB cells) is given as 0.017 mM. The “concentration with strong interference with pro-inflammatory response including PGE2 release” value ([6]; activated human T lymphocytes) was ≥ 3 µM.
With `CSCCCCC#N` [4-MTB-CN, 5-(methylthio)pentylnitrile] the IC50 [1, 8] was 17.9 mM, the “concentration at which a viability loss was detected” value [2] was 30000 µM and the “difference in cytotoxicity between CYP2E1-overexpressing and vector control cells” value (HepG2-CYP2E1 cells [7]) was “significant difference in cytotoxicity”. The “DNA strand breaks, concentration dependence” value (HepG2 cells [4]) was “concentration-dependent increase in DNA strand breaks” and the “concentration with significant increase in DNA strand breaks” value (HepG2 cells [4]) was ≥ 3 µM.
In the case of `C[S+]([O-])CCCCN=C=S` (centres unmarked) [Sulforaphane, 4-(methylsulfinyl)butyl ITC], the “concentration inducing quinone reductase” value (quinone reductase) is given as 2.5 µM and the “maximum induction of quinone reductase” value (quinone reductase) is given as 3.1 fold.
